System: LTB4 biosynthesis in human whole blood
Test: calcium ionophore-induced LTB4 biosynthesis in human whole blood
Format: cell-based
Conditions: at 13 nM; human heparinized whole blood, calcium ionophore A23187 challenge, LTB4 by radioimmunoassay; read-out: Inhibition of leukotriene biosynthesis
Method: Inhibition of leukotriene biosynthesis was evaluated in an assay, involving calcium ionophore-induced LTB4 biosynthesis expressed human whole blood. Human heparinized whole blood was preincubated with test compounds or vehicle for 15 min at 37° C. followed by calcium ionophore A23 187 challenge (final concentration of 8.3/μM) and the reaction terminated after 30 min by adding two volumes of methanol containing prostaglandin B2 as an internal recovery standard. The methanol extract was analyzed for LTB4 using a commercially available radioimmunoassay.

SMILES: CON=C(c1cccc(COc2ccc3c(-c4ccc(F)cc4)c4c(cc3c2)C(=O)OC4)c1)[C@H]1COC(C)(C)O1 [Example 1, O-methylE- and Z-(4"S)-7-[(3'-((2",2"-dimethyl-1",3"-dioxolan-4"-yl)oximinomethyl)phenyl)oxymethylene]-4-(4-fluorophenyl)naptho[2,3-c]furan-1(3H)-one]
- inhibition at 0.013 µM: 52%

From patent US5446055A, “Polyether naphthalenic lignan lactones as inhibitors of 5-lipoxygenase” (Abbott Laboratories, priority 1994, dated 1995)
